Measured values taken from patent publication US4558122A, “Stable s-adenosylmethionine derivatives, the process for their preparation, and therapeutic compositions which contain them as active principle” (Bioresearch S.P.A., priority 1981, dated 1985).
Like-named read-outs stand apart in the source and are kept apart here. Each block holds one molecule with its values, some of them ahead of it.

Columns and labels:
physchem = format: physicochemical; details: water
[1] = absorption "in situ" (intestinal sacs); format: in vivo, rat; details: rat, in situ intestinal sacs, 2 mg in 1 ml physiological solution, rats, H2 SO4 salts, m 0 or 1, n 3, read-out: PRODUCT ABSORPTION in sacs
Protocol: (§1) In the 1st test, known as "in situ" (intestinal sacs), 2 mg of each product to be tested in 1 ml of physiological solution were placed in intestinal sacs provided in rats under ether anesthesia. The rats were killed after 2 hours, and the residual content of the sac (wall+content) was analysed. In the 2nd test, portions of intestine turned inside out were used, incubated at 37° C. in accordance with Krebs Ringer against an external product concentration of 10^-4 M. The products were all salified with H2 SO4 to give salts in which m was 0 or 1 and n was 3.

[2] = test system: portions of intestine turned inside out; assay: absorption by portions of intestine turned inside out; format: in vitro ADME
Protocol: In the 2nd test, portions of intestine turned inside out were used, incubated at 37° C. in accordance with Krebs Ringer against an external product concentration of 10^-4 M. The products were all salified with H2 SO4 to give salts in which m was 0 or 1 and n was 3.

[3] = stability in the dry state at 45° C.; format: physicochemical
intestinal sacs = assay: absorption "in situ" (intestinal sacs); format: in vivo, rat; details: 2 mg in 1 ml physiological solution, rats, 2 hours; H2 SO4 salts, m 0 or 1, n 3
Protocol: as §1

[4] = 37° C., Krebs Ringer, external concentration 10^-4 M, H2 SO4 salts, m 0 or 1, n 3
[5] = 45° C., 60 days, read-out: Degradation at 45° C. after 60 days
[6] = 45° C., 120 days, read-out: Degradation at 45° C. after 120 days
[7] = 45° C., 180 days, read-out: Degradation at 45° C. after 180 days
[8] = 45° C., 240 days, read-out: Degradation at 45° C. after 240 days
[9] = 45° C., 360 days, read-out: Degradation at 45° C. after 360 days

Molecule: CCOC(=O)[C@@H](N)CC[S+](C)C[C@H]1O[C@@H](n2cnc3c(N)ncnc32)[C@H](O)[C@@H]1O (some centres unmarked) [C2 H5, SAM ethyl ester]
degraded at 0.25 h (physchem; pH 2): 2% | degraded at 0.5 h (physchem; pH 2): 4% | degraded at 1 h (physchem; pH 2): 8% | degraded at 4 h (physchem; pH 2): 35% | degraded at 0.25 h (physchem; pH 3): 3% | degraded at 0.5 h (physchem; pH 3): 6% | degraded at 1 h (physchem; pH 3): 13% | degraded at 4 h (physchem; pH 3): 55% | degraded at 0.25 h (physchem; pH 4): 5% | degraded at 0.5 h (physchem; pH 4): 9% | degraded at 1 h (physchem; pH 4): 19% | degraded at 4 h (physchem; pH 4): 80% | Fa at 2 h [1]: 59% | PRODUCT ABSORPTION intestine inside out [2, 4]: 0.061 nmoles/h/mg tissue

Molecule: CCCOC(=O)[C@@H](N)CC[S+](C)C[C@H]1O[C@@H](n2cnc3c(N)ncnc32)[C@H](O)[C@@H]1O (some centres unmarked) [C3 H7 H H, SAM n-propyl ester]
Fa at 2 h [1]: 61% | PRODUCT ABSORPTION intestine inside out [2, 4]: 0.045 nmoles/h/mg tissue

Molecule: COC(=O)[C@@H](N)CC[S+](C)C[C@H]1O[C@@H](n2cnc3c(N)ncnc32)[C@H](O)[C@@H]1O (some centres unmarked) [CH3, SAM methyl ester]
degraded at 0.25 h (physchem; pH 2): 5% | degraded at 0.5 h (physchem; pH 2): 10% | degraded at 1 h (physchem; pH 2): 21% | degraded at 4 h (physchem; pH 2): 75% | degraded at 0.25 h (physchem; pH 3): 6% | degraded at 0.5 h (physchem; pH 3): 13% | degraded at 1 h (physchem; pH 3): 25% | degraded at 4 h (physchem; pH 3): 100% | degraded at 0.25 h (physchem; pH 4): 8% | degraded at 0.5 h (physchem; pH 4): 18% | degraded at 1 h (physchem; pH 4): 40% | degraded at 4 h (physchem; pH 4): 100% | Fa at 2 h [1]: 55% | PRODUCT ABSORPTION intestine inside out [2, 4]: 0.078 nmoles/h/mg tissue

Molecule: CCCCC(=O)N[C@@H](CC[S+](C)C[C@H]1O[C@@H](n2cnc3c(N)ncnc32)[C@H](OC(=O)CCCC)[C@@H]1OC(=O)CCCC)C(=O)[O-] (some centres unmarked) [H COC4 H9 COC4 H9]
Fa at 2 h [1]: 87% | PRODUCT ABSORPTION intestine inside out [2, 4]: 0.031 nmoles/h/mg tissue

Molecule: CCCCC(=O)N[C@@H](CC[S+](C)C[C@H]1O[C@@H](n2cnc3c(N)ncnc32)[C@H](O)[C@@H]1O)C(=O)[O-] (some centres unmarked) [H COC4 H9 H]
Fa at 2 h [1]: 18% | PRODUCT ABSORPTION intestine inside out [2, 4]: 0.028 nmoles/h/mg tissue

Molecule: CC(=O)N[C@@H](CC[S+](C)C[C@H]1O[C@@H](n2cnc3c(N)ncnc32)[C@H](OC(C)=O)[C@@H]1OC(C)=O)C(=O)[O-] (some centres unmarked) [H COCH3 COCH3, SAM triacetyl]
Fa at 2 h [1]: 65% | PRODUCT ABSORPTION intestine inside out [2, 4]: 0.047 nmoles/h/mg tissue

Molecule: CC(=O)N[C@@H](CC[S+](C)C[C@H]1O[C@@H](n2cnc3c(N)ncnc32)[C@H](O)[C@@H]1O)C(=O)[O-] (some centres unmarked) [H COCH3 H, SAM monoacetyl]
Fa at 2 h [1]: 10% | PRODUCT ABSORPTION intestine inside out [2, 4]: 0.046 nmoles/h/mg tissue

Molecule: C[S+](CC[C@H](NC(=O)CCC(=O)O)C(=O)[O-])C[C@H]1O[C@@H](n2cnc3c(N)ncnc32)[C@H](O)[C@@H]1O (some centres unmarked) [H Succinyl H, SAM succinyl]
Fa at 2 h [1]: 25% | PRODUCT ABSORPTION intestine inside out [2, 4]: 0.016 nmoles/h/mg tissue

Molecule: C[S+](CC[C@H](N)C(=O)[O-])C[C@H]1O[C@@H](n2cnc3c(N)ncnc32)[C@H](O)[C@@H]1O (some centres unmarked) [SAM. H2 SO4, S-adenosylmethionine]
degraded at 1440 h [3]: 80% | degraded at 2880 h [3]: 100% | degraded at 4320 h [3]: 100% | degraded at 5760 h [3]: 100% | degraded at 8640 h [3]: 100%

Molecule: SAM n-dodecyl [H Dodecyl H]
PRODUCT ABSORPTION in sacs (intestinal sacs): 65 % of dose | PRODUCT ABSORPTION intestine inside out [2, 4]: 0.019 nmoles/h/mg tissue

Further lines, results first:

degraded at 0.25 h (physchem; pH 2): 2% | degraded at 0.5 h (physchem; pH 2): 4% | degraded at 1 h (physchem; pH 2): 8% | degraded at 4 h (physchem; pH 2): 30% | degraded at 0.25 h (physchem; pH 3): 3% | degraded at 0.5 h (physchem; pH 3): 6% | degraded at 1 h (physchem; pH 3): 12% | degraded at 4 h (physchem; pH 3): 52% | degraded at 0.25 h (physchem; pH 4): 4% | degraded at 0.5 h (physchem; pH 4): 9% | degraded at 1 h (physchem; pH 4): 17% | degraded at 4 h (physchem; pH 4): 75% | Fa at 2 h [1]: 65% | PRODUCT ABSORPTION intestine inside out [2, 4]: 0.037 nmoles/h/mg tissue
Molecule: CCCCOC(=O)[C@@H](N)CC[S+](C)C[C@H]1O[C@@H](n2cnc3c(N)ncnc32)[C@H](O)[C@@H]1O (some centres unmarked) [C4 H9, SAM n-butyl ester]

Fa at 2 h [1]: 68% | PRODUCT ABSORPTION intestine inside out [2, 4]: 0.025 nmoles/h/mg tissue
Molecule: CCCCCOC(=O)[C@@H](N)CC[S+](C)C[C@H]1O[C@@H](n2cnc3c(N)ncnc32)[C@H](O)[C@@H]1O (some centres unmarked) [C5 H11 H H, SAM n-pentyl ester]

Fa at 2 h [1]: 67% | PRODUCT ABSORPTION intestine inside out [2, 4]: 0.023 nmoles/h/mg tissue
Molecule: CCCCCCOC(=O)[C@@H](N)CC[S+](C)C[C@H]1O[C@@H](n2cnc3c(N)ncnc32)[C@H](O)[C@@H]1O (some centres unmarked) [C6 H13 H H, SAM n-hexyl ester]

Fa at 2 h [1]: 12% | PRODUCT ABSORPTION intestine inside out [2, 4]: 0.017 nmoles/h/mg tissue
Molecule: C[S+](CC[C@H](NC(=O)c1ccccc1)C(=O)[O-])C[C@H]1O[C@@H](n2cnc3c(N)ncnc32)[C@H](O)[C@@H]1O (some centres unmarked) [H COC6 H5 H, SAM benzoyl]

Fa at 2 h [1]: 23% | PRODUCT ABSORPTION intestine inside out [2, 4]: 0.018 nmoles/h/mg tissue
Molecule: C[S+](CC[C@H](NC(=O)CCCC(=O)O)C(=O)[O-])C[C@H]1O[C@@H](n2cnc3c(N)ncnc32)[C@H](O)[C@@H]1O (some centres unmarked) [H Glutaryl H, SAM glutaryl]

Fa at 2 h [1]: 91% | PRODUCT ABSORPTION intestine inside out [2, 4]: 0.035 nmoles/h/mg tissue
Molecule: CC(=O)O[C@@H]1[C@H](OC(C)=O)[C@@H](C[S+](C)CC[C@H](NC(=O)CCC(=O)O)C(=O)[O-])O[C@H]1n1cnc2c(N)ncnc21 (some centres unmarked) [H Succinyl COCH3, SAM succinyl-diacetyl]

Fa at 2 h [1]: 13% | PRODUCT ABSORPTION intestine inside out [2, 4]: 0.021 nmoles/h/mg tissue
Molecule: Cc1ccc(S(=O)(=O)N[C@@H](CC[S+](C)C[C@H]2O[C@@H](n3cnc4c(N)ncnc43)[C@H](O)[C@@H]2O)C(=O)[O-])cc1 (some centres unmarked) [H p.tol. sulphon. H, SAM p-toluenesulphonyl]

degraded at 0.25 h (physchem; pH 2): 80% | degraded at 0.5 h (physchem; pH 2): 100% | degraded at 1 h (physchem; pH 2): 100% | degraded at 4 h (physchem; pH 2): 100% | degraded at 0.25 h (physchem; pH 3): 90% | degraded at 0.5 h (physchem; pH 3): 100% | degraded at 1 h (physchem; pH 3): 100% | degraded at 4 h (physchem; pH 3): 100% | degraded at 0.25 h (physchem; pH 4): 100% | degraded at 0.5 h (physchem; pH 4): 100% | degraded at 1 h (physchem; pH 4): 100% | degraded at 4 h (physchem; pH 4): 100% | PRODUCT ABSORPTION intestine inside out [2]: 0.009 nmoles/h/mg tissue
Molecule: C[S+](CC[C@H](N)C(=O)[O-])C[C@H]1O[C@@H](n2cnc3c(N)ncnc32)[C@H](O)[C@@H]1O (some centres unmarked) [H, S-adenosylmethionine]

degraded at 1440 h [3, 5]: 0% | degraded at 2880 h [3, 6]: 1.4% | degraded at 4320 h [3, 7]: 3% | degraded at 5760 h [3, 8]: 4.6% | degraded at 8640 h [3, 9]: 5.5%
Molecule: CC(=O)N[C@@H](CC[S+](C)C[C@H]1O[C@@H](n2cnc3c(N)ncnc32)[C@H](O)[C@@H]1O)C(=O)[O-] (some centres unmarked) [SAM monoacetyl. 2 H2 SO4, SAM monoacetyl]

degraded at 1440 h [3, 5]: 1% | degraded at 2880 h [3, 6]: 1.9% | degraded at 4320 h [3, 7]: 4.1% | degraded at 5760 h [3, 8]: 5.9% | degraded at 8640 h [3, 9]: 8%
Molecule: CC(=O)N[C@@H](CC[S+](C)C[C@H]1O[C@@H](n2cnc3c(N)ncnc32)[C@H](OC(C)=O)[C@@H]1OC(C)=O)C(=O)[O-] (some centres unmarked) [SAM triacetyl. 2 H2 SO4, SAM triacetyl]

PRODUCT ABSORPTION in sacs (intestinal sacs): 62 % of dose | PRODUCT ABSORPTION intestine inside out [2, 4]: 0.023 nmoles/h/mg tissue
Molecule: SAM n-octyl [H Octyl H]
